Measured values taken from patent US20130040893A1, “TREATMENT OF PROLIFERATIVE DISORDERS” (TETRALOGIC PHARMACEUTICALS CORPORATION, priority 2005, published 2013).
Where two headings read alike, the source gives them in different places. Residues, ends and D or L forms follow the SMILES beside them.

B1: TRAIL: tumor necrosis factor-related apoptosis-inducing ligand, member of the TNF superfamily (protein, UniProt P50591 1-281, looked up)
Tumor necrosis factor ligand …: MAMMEVQGGPSLGQTCVLIVIFTVLLQSLCVAVTYVYFTNELKQMQDKYSKSGIACFLKEDDSYWDPNDEESMNSPCWQVKWQLRQLVRKMILRTSEETISTVQEKQQNISPLVRERGPQRVAAHITGTRGRSNTLSSPNSKNEKALGRKINSWESSRSGHSFLSNLHLRNGELVIHEKGFYYIYSQTYFRFQEEIKENTKNDKQMVQYIYKYTSYPDPILLMKSARNSCWSKDAEYGLYSIYQGGIFELKENDRIFVSVTNEHLIDMDHEASFFGAFLVG

Legend:
BIR-3 domain of cIAP-1 [1] = molecular target: BIR-3 domain of cIAP-1 (Homo sapiens, UniProt Q13490); test: Fluorescence polarization binding assay, cIAP-1 BIR-3 domain
Chain of BIR-3 domain of cIAP-1 (Homo sapiens, UniProt Q13490) (Q13490 266-352 limits assumed): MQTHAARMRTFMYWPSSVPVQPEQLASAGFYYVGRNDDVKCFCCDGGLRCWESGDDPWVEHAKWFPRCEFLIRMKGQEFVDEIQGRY
Experimental: (§6) IC50 values (Table I) were determined from the plot using nonlinear least-squares analysis using GraphPad Prism.
(§7) We have utilized the specificity of this IAP binding motif in a fluorescence polarization assay to measure the binding affinities for cIAP-1 Antagonists. The fluorescence polarization assay consists of FP peptide {Sri: What is “FP Peptide”?}, and the recombinant BIR3 domain of the XIAP protein. The FP peptide and mimics of cIAP-1 N-terminus compete for binding to the BIR3 protein. […] If a peptide, peptidomimetic, or other small molecule being tested is a competitor, then it succeeds in displacing the FP peptide, resulting in a low mP value. Molecules that compete with the FP peptide can be titrated and IC50 values determined (GraphPad Prism nonlinear regression curve-fitting program) by plotting mp value as the direct measure of fraction bound vs. the log of the compound concentration.

SK-OV-3 cells = test: MTT cell growth assay in SK-OV-3 ovarian cancer cells; type: cell-based; conditions: Homo sapiens
Experimental: The MTT assay is an example of an assay that has been used for measuring cell growth as previously described (Hansen, M. B., Nielsen, S. E., and Berg, K. (1989) J. Immunol. Methods 119, 203-210) and incorporated herein by reference in its entirety. Briefly, SK-OV-3 cells were seeded in 96-well plates in McCoy's medium containing 10% fetal bovine serum […] (10,000 per well) and incubated overnight at 37° C.
μM) and the plates were incubated at 37° C. for an additional 72 hrs. This incubation time was optimal for measuring inhibitory effects of different analogs. 50 microliters of 5 mg/mL MTT reagent to each well was added and the plates were incubated at 37° C. for 3 hours. At the end of incubation period, 50 microliters of DMSO was added to each well to dissolve cells and the optical density (OD) of the wells was measured with a microplate reader (Victor^2 1420, Wallac, Finland) at 535 nm. Cell survival (CS) was calculated by the following equation:
CS=(OD treated well/mean OD control wells)×100%.
The EC50 (Table 1), defined as the drug concentration that results in 50% CS, was derived by calculating the point where the dose-response curve crosses the 50% CS point using GraphPad Prism.

BIR-3 domain of XIAP = BIR-3 domain of XIAP (Homo sapiens, UniProt P98170); test: Fluorescence polarization binding assay, XIAP BIR-3 domain
Chain of BIR-3 domain of XIAP (P98170 241-356 limits assumed): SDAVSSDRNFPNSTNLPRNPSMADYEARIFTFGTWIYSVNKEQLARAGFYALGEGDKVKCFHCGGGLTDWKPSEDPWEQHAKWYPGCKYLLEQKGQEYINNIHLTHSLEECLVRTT
Experimental: as §6, §7

OVCAR-3 cell line = test: Synergistic toxicity with SN-38, MTT matrix; type: cell-based
Excerpt: MTT assays were setup by testing a matrix of concentrations of both drugs.

BIR-3 domain of cIAP-1 [2] = test: Fluorescence polarization binding assay, cIAP-1 BIR-3 domain; conditions: cIAP-1 relative to XIAP
Experimental: as §6, §7

cIAP-1 = molecular target: T1, cIAP-1 (Homo sapiens, UniProt Q13490); test: Western blot of cIAP-1 degradation in SKOV3 cells; type: cell-based; conditions: SK-OV-3 cells, 20 hrs, absence of bortezomib
T1 construct: endogenous in cells; host or cells: SKOV3 (SK-OV-3) cells
T1 sequence (Q13490 whole entry): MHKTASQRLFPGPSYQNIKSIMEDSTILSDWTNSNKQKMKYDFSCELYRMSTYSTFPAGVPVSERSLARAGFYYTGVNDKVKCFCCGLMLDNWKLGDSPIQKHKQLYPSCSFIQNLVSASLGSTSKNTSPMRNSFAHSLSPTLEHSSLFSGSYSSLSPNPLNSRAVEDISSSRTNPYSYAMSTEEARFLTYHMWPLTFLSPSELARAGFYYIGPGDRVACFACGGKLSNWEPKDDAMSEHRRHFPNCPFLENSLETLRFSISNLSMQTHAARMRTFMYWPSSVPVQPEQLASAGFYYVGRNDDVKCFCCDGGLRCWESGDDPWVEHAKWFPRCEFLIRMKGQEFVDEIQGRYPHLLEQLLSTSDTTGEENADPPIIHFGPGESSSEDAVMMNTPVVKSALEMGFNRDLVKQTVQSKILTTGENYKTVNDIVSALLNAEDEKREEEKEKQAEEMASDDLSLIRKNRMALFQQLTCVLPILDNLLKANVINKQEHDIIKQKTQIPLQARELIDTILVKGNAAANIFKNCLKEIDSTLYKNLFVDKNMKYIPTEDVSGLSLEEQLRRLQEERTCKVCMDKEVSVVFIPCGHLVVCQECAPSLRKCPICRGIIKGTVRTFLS
Experimental: (§1) SKOV3 cells were passed into six 60×15 mm tissue culture dishes 2 days before experiment. Cells appeared to be ˜80% confluent at time of harvest. […] A 10-fold dilution of this solution into medium A gave the 100 nM working solution.
(§2) Western blot analysis was carried out using standard technique. Briefly, cells were lysed using the MPER mammalian cell lysis solution (Bio-Rad #78503) to which 10 μl/mL of a 100× solution of HALT protease inhibitor cocktail (Bio-Rad #78410) has been added. To each dish of cells, 200 μl of the lysis solution plus protease inhibitors is added. The cells in each dish are scraped using a cell scraper and allowed to incubate with the reagent for 10 minutes. The lysates were transferred to pre-chilled microfuge tubes and spun for 20 minutes at 15,000×g at 4° C. The supernatant was transferred to a clean, chilled microfuge tube.
(§3) Next, the total protein content of the lysates was determined using the BCA Protein Assay according to the manufacturer's protocol and using interpolation from a standard curve generated with BSA.
(§4) The samples were normalized for protein content during preparation for gel electrophoresis. The samples were prepared using 2× Laemmli Sample buffer to which 200 mM DTT was added. […]

XIAP = molecular target: T2, XIAP (Homo sapiens, UniProt P98170); test: Western blot of XIAP degradation in SKOV3 cells; type: cell-based; conditions: SK-OV-3 cells, 20 hrs, absence of bortezomib
T2 construct: SKOV3 cells were passed into six 60×15 mm tissue culture dishes; endogenous in cells; host or cells: SKOV3 (SK-OV-3) cells
T2 sequence (P98170 whole entry): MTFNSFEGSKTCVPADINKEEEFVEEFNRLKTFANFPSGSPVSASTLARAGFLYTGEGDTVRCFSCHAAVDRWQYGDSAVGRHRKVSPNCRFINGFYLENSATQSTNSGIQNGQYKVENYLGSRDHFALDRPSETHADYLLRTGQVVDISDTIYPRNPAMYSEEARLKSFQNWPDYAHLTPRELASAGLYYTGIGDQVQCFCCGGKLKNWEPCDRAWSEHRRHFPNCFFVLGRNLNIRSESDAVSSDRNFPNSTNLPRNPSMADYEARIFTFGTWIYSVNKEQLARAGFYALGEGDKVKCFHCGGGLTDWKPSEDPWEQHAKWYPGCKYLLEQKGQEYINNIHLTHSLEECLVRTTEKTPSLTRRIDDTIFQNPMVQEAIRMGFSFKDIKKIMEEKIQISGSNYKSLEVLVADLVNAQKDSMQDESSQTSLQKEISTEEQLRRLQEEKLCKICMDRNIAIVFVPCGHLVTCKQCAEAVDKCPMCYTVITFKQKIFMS
Experimental: as §1, §2, §3, §4

SK-OV-3^R cells = test: TRAIL sensitivity MTT assay in IAP Antagonist-resistant SK-OV-3 cells; type: cell-based
Experimental: (§5) Another unexpected observation we made was with respect to TRAIL sensitivity. IAP Antagonist-resistant SK-OV-3 cells (SK-OV-3^R) were generated by exposing the parental SK-OV-3 cells (SK-OV-3^S) to an IAP antagonist compound at a concentration that kills 95% of cells. Three days later, viable cells were transferred to a fresh flask and grown to confluency. Two weeks later, the cells were tested for IAP Antagonist sensitivity in an MTT assay as described above and as expected, found these cells to be resistant to IAP Antagonist cytotoxicity.

SK-OV-3^S cells = test: TRAIL sensitivity MTT assay in parental SK-OV-3 cells; type: cell-based
Experimental: as §5

[3] = SK-OV-3 cells, 72 hrs, read-out: MTT EC50

Molecule	IC50 (BIR-3 domain of cIAP-1 [1]) [nM]	EC50 (SK-OV-3 cells; [3]) [nM]	IC50 (BIR-3 domain of XIAP) [nM]	further results
CC(C)[C@H](NC(=O)[C@H](C)N)C(=O)N1CCC[C@H]1C(=O)N[C@@H](Cc1ccccc1)C(=O)O [AVPF, reference compound] (H-AVPF-OH)	10 to 100	–	–	–
CCC(C)[C@H](NC(=O)[C@H](C)NC)C(=O)N1CCC[C@H]1Cc1c2n(c3ccc(F)cc13)CCn1c-2c(C[C@@H]2CCCN2C(=O)[C@@H](NC(=O)[C@H](C)NC)C(C)CC)c2cc(F)ccc21 (stereo partly drawn) [A]	< 10	< 10	10 to 100	–
CN[C@@H](C)C(=O)N[C@H](C(=O)N1CCC[C@H]1Cc1c[nH]c2ccc(C)cc12)[C@@H](C)O [C]	< 10	< 10	> 100	–
CC(C)[C@H](NC(=O)CN)C(=O)N1C[C@@H](Oc2ccccc2)C[C@H]1Cc1coc2ccccc12 [Compound I]	< 10	< 10	> 100	EC50 (SK-OV-3 cells; SK-OV-3, Table 10, read-out: MTT (SKOV-3)): < 10 nM; synergistic toxicity with SN-38 (synergistic volume) (OVCAR-3 cell line): comparable; IC50 (BIR-3 domain of XIAP; read-out: IC50 (XIAP), Table 10): > 100 nM; IC50 (BIR-3 domain of cIAP-1 [1]; read-out: IC50 (cIAP-1), Table 10): < 10 nM; binding to cIAP-1 more tightly than to XIAP (BIR-3 domain of cIAP-1 [2]): 117 fold
CN[C@@H](C)C(=O)N[C@H](C(=O)N1C[C@@H](OC(C)=O)C[C@H]1Cc1c[nH]c2ccccc12)[C@@H](C)O [D]	> 1000	–	> 1000	–
CN[C@@H](C)C(=O)N[C@H](C(=O)N1C[C@@H](OC(C)=O)C[C@H]1Cc1c[nH]c2ccccc12)C(C)(C)C [E]	< 10	10 to 100	> 100	–
CN[C@@H](C)C(=O)N[C@H](C(=O)N1C[C@@H](OC(C)=O)C[C@H]1Cc1c[nH]c2ccccc12)C(C)C [F]	< 10	10 to 100	10 to 100	–
CN[C@@H](C)C(=O)N[C@H](C(=O)N1CCC[C@H]1Cc1c[nH]c2ccc(C)cc12)C(C)C [G]	< 10	10 to 100	10 to 100	–
CC(C)[C@H](NC(=O)[C@H](C)N)C(=O)N1CCC[C@H]1Cc1c(-c2ccc(-c3oc4ccccc4c3C[C@@H]3CCCN3C(=O)[C@@H](NC(=O)[C@H](C)N)C(C)C)cc2)[nH]c2ccccc12 [J]	> 100	> 100	> 100	–
CN[C@@H](C)C(=O)N[C@H](C(=O)N1CCC[C@H]1Cc1cn(CCOCCn2cc(C[C@@H]3CCCN3C(=O)[C@@H](NC(=O)[C@H](C)NC)C3CCCCC3)c3ccccc32)c2ccccc12)C1CCCCC1 [K]	10 to 100	10 to 100	> 100	–
CC(C)[C@@H](NC(=O)[C@@H](C)N)C(=O)N1CCC[C@@H]1Cc1c(-c2ccc(-c3oc4ccccc4c3C[C@H]3CCCN3C(=O)[C@H](NC(=O)[C@@H](C)N)C(C)C)cc2)[nH]c2ccccc12 [L]	10 to 100	< 10	> 100	–
CN[C@@H](C)C(=O)N[C@H](C(=O)N1C[C@@H](O)C[C@H]1Cc1c(-c2ccc(-c3[nH]c4ccccc4c3C[C@@H]3C[C@H](O)CN3C(=O)[C@@H](NC(=O)[C@H](C)NC)C(C)(C)C)cc2)[nH]c2ccccc12)C(C)(C)C [M]	10 to 100	10 to 100	10 to 100	–
CN[C@@H](C)C(=O)N[C@H](C(=O)N1CCC[C@H]1Cc1c(-c2ccc(-c3c(C[C@@H]4CCCN4C(=O)[C@@H](NC(=O)[C@H](C)NC)C(C)(C)C)c4ccc(F)cc4n3CCO)cc2)n(CCO)c2cc(F)ccc12)C(C)(C)C [N]	10 to 100	< 10	10 to 100	–
CN[C@@H](C)C(=O)N[C@H](C(=O)N1CCC[C@H]1Cc1c(-c2ccc(-c3c(C[C@@H]4CCCN4C(=O)[C@@H](NC(=O)[C@H](C)NC)C(C)C)c4ccc(F)cc4n3CCOC(C)=O)cc2)n(CCOC(C)=O)c2cc(F)ccc12)C(C)C [O]	> 1000	> 1000	> 1000	–
CN[C@@H](C)C(=O)N[C@H](C(=O)N1CCC[C@H]1Cc1c(-c2ccc(C(=O)OC)cc2)n(CCOCCOCCOC)c2cc(F)ccc12)C(C)(C)C [P]	10 to 100	< 10	10 to 100	–
CN[C@@H](C)C(=O)N[C@H](C(=O)N1CCC[C@H]1Cc1c(-c2ccc(F)cc2)n(CCOCCOCCOC)c2cc(F)ccc12)C(C)(C)C [Q]	10 to 100	< 10	10 to 100	cIAP-1 protein by western blot (cIAP-1): complete disappearance; XIAP protein by western blot (XIAP): complete disappearance
CN[C@@H](C)C(=O)N[C@H](C(=O)N1CCC[C@H]1Cc1c(-c2ccc(N3CCOCC3)cc2)n(CCOCCOCCOC)c2cc(F)ccc12)C(C)(C)C [R]	10 to 100	10 to 100	10 to 100	–
B1	–	–	–	TRAIL sensitivity (SK-OV-3^R cells): sensitive to TRAIL; TRAIL sensitivity (SK-OV-3^S cells): resistant to TRAIL
